Data reported in patent US9273014B2, “Bis(fluoroalkyl)-1,4-benzodiazepinone compounds and prodrugs thereof” (Bristol-Myers Squibb Company, priority 2012, dated 2016).
Entries after “also recorded” stand apart in the source; their conditions may differ.

Assays:
[1] = test system: MDA-MB-157 Human Breast Carcinoma; assay: Human tumor xenograft model in mice, MDA-MB-157; type: in vivo; settings: oral administration, 10-20 mg/kg, QDx15, 10 day-on-2 day-off-5 day on
Protocol: (§1) Human Tumor Xenograft Models in Mice
(§2) Mice were fed food and water ad libitum.
(§3) Tumor growth inhibition is calculated as follows: […]
(§4) When death occurred, the day of death was recorded.

human tumor xenografts = assay: Human tumor xenograft models in mice (general statement); type: in vivo; settings: orally administered (PO)
Protocol: Mice were fed food and water ad libitum. […] [table] […] When death occurred, the day of death was recorded.

[2] = test system: TALL1 Human T-cell acute lymphoblastic leukemia; assay: Human tumor xenograft model in mice, TALL1; type: in vivo; settings: oral administration, QDx10, LCK = Log Cell Kill
Protocol: as §1, §2, §3, §4

human Notch 3 = human Notch 3 (Homo sapiens, UniProt Q9UM47); assay: Notch-CBF1 Transactivation Assay (Notch 3); type: cell-based; settings: HeLa cells co-transfected with truncated Notch 3 and CBF1 luciferase reporter; 18 hours incubation
human Notch 3, sequence (Q9UM47 40-2321 limits assumed): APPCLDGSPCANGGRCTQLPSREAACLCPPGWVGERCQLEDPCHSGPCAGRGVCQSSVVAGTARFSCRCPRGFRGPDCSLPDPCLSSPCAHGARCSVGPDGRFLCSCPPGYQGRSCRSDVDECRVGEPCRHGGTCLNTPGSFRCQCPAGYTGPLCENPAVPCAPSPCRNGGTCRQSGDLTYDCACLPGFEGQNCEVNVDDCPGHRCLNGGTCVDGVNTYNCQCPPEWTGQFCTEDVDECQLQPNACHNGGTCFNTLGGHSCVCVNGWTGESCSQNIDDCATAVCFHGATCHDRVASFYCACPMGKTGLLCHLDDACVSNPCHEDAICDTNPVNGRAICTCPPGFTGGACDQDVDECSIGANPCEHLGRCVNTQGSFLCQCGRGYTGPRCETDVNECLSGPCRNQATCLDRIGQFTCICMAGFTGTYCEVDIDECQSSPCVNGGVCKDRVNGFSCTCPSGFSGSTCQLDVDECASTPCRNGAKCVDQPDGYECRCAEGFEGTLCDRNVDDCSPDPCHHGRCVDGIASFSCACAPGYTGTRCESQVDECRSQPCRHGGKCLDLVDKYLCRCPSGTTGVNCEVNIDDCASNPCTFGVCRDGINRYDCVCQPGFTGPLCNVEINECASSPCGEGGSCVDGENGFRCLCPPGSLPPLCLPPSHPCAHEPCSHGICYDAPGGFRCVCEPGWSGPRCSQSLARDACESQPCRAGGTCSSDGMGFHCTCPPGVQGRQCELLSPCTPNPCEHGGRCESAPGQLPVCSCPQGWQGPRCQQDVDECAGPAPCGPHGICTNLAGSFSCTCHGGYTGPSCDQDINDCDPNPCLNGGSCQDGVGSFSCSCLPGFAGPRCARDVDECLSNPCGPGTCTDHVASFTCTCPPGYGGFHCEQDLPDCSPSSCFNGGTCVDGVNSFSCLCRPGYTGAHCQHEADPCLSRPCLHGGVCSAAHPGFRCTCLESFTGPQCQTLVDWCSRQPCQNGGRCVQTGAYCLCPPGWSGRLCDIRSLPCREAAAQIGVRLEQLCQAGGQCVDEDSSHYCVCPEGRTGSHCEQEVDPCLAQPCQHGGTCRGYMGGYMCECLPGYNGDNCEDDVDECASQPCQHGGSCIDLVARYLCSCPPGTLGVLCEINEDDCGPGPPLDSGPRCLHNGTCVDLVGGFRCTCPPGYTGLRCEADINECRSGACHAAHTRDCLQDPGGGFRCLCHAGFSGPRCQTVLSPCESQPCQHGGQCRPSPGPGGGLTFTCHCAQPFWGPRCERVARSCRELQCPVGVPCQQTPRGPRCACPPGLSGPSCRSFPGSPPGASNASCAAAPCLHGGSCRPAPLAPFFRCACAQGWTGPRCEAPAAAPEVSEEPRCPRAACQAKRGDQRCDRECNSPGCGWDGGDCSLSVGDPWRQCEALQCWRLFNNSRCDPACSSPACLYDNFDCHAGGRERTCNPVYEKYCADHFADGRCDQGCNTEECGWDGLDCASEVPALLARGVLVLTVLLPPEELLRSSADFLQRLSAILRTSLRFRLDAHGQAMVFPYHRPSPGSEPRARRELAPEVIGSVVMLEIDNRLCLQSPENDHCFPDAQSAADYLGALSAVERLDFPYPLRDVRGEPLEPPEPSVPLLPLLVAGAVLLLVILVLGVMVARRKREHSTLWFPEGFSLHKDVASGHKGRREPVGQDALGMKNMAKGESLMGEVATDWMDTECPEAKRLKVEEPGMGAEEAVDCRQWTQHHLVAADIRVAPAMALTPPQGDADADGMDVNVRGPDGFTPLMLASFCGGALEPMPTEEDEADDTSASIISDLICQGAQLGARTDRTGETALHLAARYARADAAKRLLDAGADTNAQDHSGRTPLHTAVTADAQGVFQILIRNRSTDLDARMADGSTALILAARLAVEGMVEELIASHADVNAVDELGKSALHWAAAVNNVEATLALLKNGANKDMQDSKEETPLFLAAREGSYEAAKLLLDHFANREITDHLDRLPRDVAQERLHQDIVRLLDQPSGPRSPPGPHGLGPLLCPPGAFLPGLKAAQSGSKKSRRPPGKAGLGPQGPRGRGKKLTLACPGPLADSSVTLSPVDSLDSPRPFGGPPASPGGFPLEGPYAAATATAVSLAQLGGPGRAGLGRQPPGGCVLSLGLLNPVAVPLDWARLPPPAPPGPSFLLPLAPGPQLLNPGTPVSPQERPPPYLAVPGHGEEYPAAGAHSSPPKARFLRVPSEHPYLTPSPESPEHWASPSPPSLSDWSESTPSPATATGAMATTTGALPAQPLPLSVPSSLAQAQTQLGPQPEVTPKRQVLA
Text: Notch-CBF1 Transactivation Assay
The Notch-CBF1 (C-promoter binding factor I) cell based transactivation assay is based on the ability of the released Notch intracellular domain fragments (NICDs) to function as transcription factors in conjunction with CBF1 and other nuclear factors. Luciferase assays were used to measure the antagonism of Notch-CBF1 transcriptional activity. HeLa cervical cancer cells are transiently co-transfected with pCDNA3.1/Hygro plasmids containing truncated Notch 1, Notch 2, Notch 3, or Notch 4 receptors and a PGL3 luciferase reporter vector containing 4 copies of CBF1 binding site. The cells were then tested for Notch-CBF1 activity in the absence or presence of test compounds. HeLa cells, maintained in DMEM (high glucose with HEPES), 1× glutamine/penicillin/streptomycin and 10% Fetal Bovine serum, were transiently transfected in a T175 Flask (4.5×10^6 cells/flask) using the Monster Transfection Kit (Minis #MIR2906) according to manufacturers specifications. Table 9 denotes respective DNA quantity for the transfections.
Assay media (5 μL) containing test compounds in final concentrations ranging from 5 μM to 8.4×10^−5 μM (3 fold serial dilutions) were added to the cells and the cell plates were then incubated for 18 hours at 37° C. and 5% CO2. Control wells contained DMSO vehicle (total counts) or 0.5 μM of an in-house small molecule inhibitor (background counts). Duplicates were used for each sample. Luciferase activity was measured after a 20-minute incubation with 50 μl STEADY-GLO® luciferase reagents according to manufacturer's specifications (Promega, Cat. #E2550) and analyzed by Envision plate reader (PerkinElmer, Boston, Mass.).
The antagonist effect of compounds was expressed as 100×[1−(average sample-average background)/(average total−average background)] where sample is the luciferase activity in the presence of test compound, background is equal to the luciferase activity in the presence of the small molecule inhibitor control and the total is signal induced in DMSO wells.

in vitro = settings: human, microsomes, pH 7.4
[3] = test system: MDA-MB-468 Human Breast Carcinoma; settings: oral administration, 10-20 mg/kg, QDx15, 10 day-on-2 day-off-5 day on
Protocol: Treatment of each animal was based on individual body weight. Treated animals were checked daily for treatment related toxicity/mortality. Each group of animals was weighed before the initiation of treatment (Wt1) and then again following the last treatment dose (Wt2). The difference in body weight (Wt2−Wt1) provides a measure of treatment-related toxicity.
Statistical evaluations of data were performed using Gehan's generalized Wilcoxon test. Statistical significance was declared at P<0.05.

[4] = human metabolic stability half-life assay; settings: microsomes, pH 7.4
[5] = Prodrug evaluation: single-dose pharmacokinetics in rats; settings: rat, oral gavage, dose 3.00 mg/kg
Protocol: Male SPRAGUE DAWLEY® rats (250-300 g) were used for the pharmacokinetic studies. Rats were fasted overnight prior to dosing and fed 4 hrs post dose. In each study, groups of animals (N=2-3) received the test compound by oral gavage. Blood samples (˜0.3 mL) were collected from the jugular vein into K2EDTA-containing tubes at 0.5, 1, 3, 5, 7, and 24 h post dose. Plasma samples, obtained by centrifugation at 4° C. (1500-2000× g), were stored at −20° C. until analysis by LC/MS/MS.
The pharmacokinetic parameters were obtained by non-compartmental analysis of plasma concentration (determined by LC/MS/MS) vs. time data (ThermoKinetica Software version 5.0). The peak concentration (Cmax) and time for Cmax, Tmax, were recorded directly from experimental observations. The area under the curve from time zero to the last sampling time (AUC0-t) was calculated using a combination of linear and log trapezoidal summations. The total plasma clearance (CLTp), steady-state volume of distribution (Vss), apparent elimination half-life (t1/2) and mean residence time (MRT) were estimated after IV administration. […] The absolute oral bioavailability F was estimated as the ratio of dose-normalized AUC values following oral and IV doses.

Structure (SMILES)	IC50 (human Notch 3) [nM]	half-life (in vitro) [h]	also measured
Cc1cccc2c1NC(=O)[C@@H](NC(=O)[C@H](CCC(F)(F)F)[C@H](CCC(F)(F)F)C(N)=O)N=C2c1cccc(F)c1 [Example 1, (2R,3S)—N-((3S)-5-(3-Fluorophenyl)-9-methyl-2-oxo-2,3-dihydro-1H-1,4-benzodiazepin-3-yl)-2,3-bis(3,3,3-trifluoropropyl)succinamide]	8.5		Antitumor Activity MDA-MB-157 (% TGI) [1]: 91%; antitumor activity in human tumor xenografts implanted in mice (human tumor xenografts): exhibited antitumor activity; also recorded: showed antitumor activity; Antitumor Activity TALL1 (LCK) ([2]; 10-20 mg/kg): >4.3; half-life at 0.5 µM (in vitro): 1.72 h; Antitumor Activity MDA-MB-468 (% TGI) [3]: 98%
CC(C)c1cccc2c1NC(=O)[C@@H](NC(=O)[C@H](CCC(F)(F)F)[C@H](CCC(F)(F)F)C(N)=O)N=C2c1cccc(Cl)c1 [Example 3, (2R,3S)—N-((3S)-5-(3-Chlorophenyl)-9-isopropyl-2-oxo-2,3-dihydro-1H-1,4-benzodiazepin-3-yl)-2,3-bis(3,3,3-trifluoropropyl)succinamide]	1.9	1.22	antitumor activity in human tumor xenografts implanted in mice (human tumor xenografts): showed antitumor activity; Antitumor Activity TALL1 (LCK) ([2]; 10 mg/kg): 4.0
Cc1cccc2c1NC(=O)[C@@H](NC(=O)[C@H](CCC(F)(F)F)[C@H](CCCC(F)(F)F)C(N)=O)N=C2c1cccc(C(F)(F)F)c1 [Example 18, (2R,3S)—N-((3S)-9-Methyl-2-oxo-5-(3-(trifluoromethyl)phenyl)-2,3-dihydro-1H-1,4-benzodiazepin-3-yl)-3-(4,4,4-trifluorobutyl)-2-(3,3,3-trifluoropropyl)succinamide]	7.7	> 2	
NC(=O)[C@@H](CCC(F)(F)F)[C@@H](CCC(F)(F)F)C(=O)N[C@H]1N=C(c2ccccc2)c2cccc(OC3CC3)c2NC1=O [Example 19, (2R,3S)—N-((3S)-9-(Cyclopropyloxy)-2-oxo-5-phenyl-2,3-dihydro-1H-1,4-benzodiazepin-3-yl)-2,3-bis(3,3,3-trifluoropropyl)succinamide]	4	1.8	
Cc1cccc2c1NC(=O)[C@@H](NC(=O)[C@H](CCC(F)(F)F)[C@H](CCC(F)(F)F)C(N)=O)N=C2c1cccc(C(F)(F)F)c1 [Example 20, (2R,3S)—N-((3S)-9-Methyl-2-oxo-5-(3-(trifluoromethyl)phenyl)-2,3-dihydro-1H-1,4-benzodiazepin-3-yl)-2,3-bis(3,3,3-trifluoropropyl)succinamide]	1.4	> 2	
Cc1ccccc1C1=N[C@H](NC(=O)[C@H](CCC(F)(F)F)[C@H](CCC(F)(F)F)C(N)=O)C(=O)Nc2c(Cl)cccc21 [Example 21, (2R,3S)—N-((3S)-9-Chloro-5-(2-methylphenyl)-2-oxo-2,3-dihydro-1H-1,4-benzodiazepin-3-yl)-2,3-bis(3,3,3-trifluoropropyl)succinamide]	6.1	1.78	
Cc1cccc2c1NC(=O)[C@@H](NC(=O)[C@H](CCC(F)(F)F)[C@H](CCC(F)(F)F)C(N)=O)N=C2c1ccc(F)cc1 [Example 22, (2R,3S)—N-((3S)-5-(4-Fluorophenyl)-9-methyl-2-oxo-2,3-dihydro-1H-1,4-benzodiazepin-3-yl)-2,3-bis(3,3,3-trifluoropropyl)succinamide]	6.3	> 2	
Cc1cccc2c1NC(=O)[C@@H](NC(=O)[C@H](CCC(F)(F)F)[C@H](CCC(F)(F)F)C(N)=O)N=C2c1ccccc1 [Example 23, (2R,3S)—N-((3S)-9-Methyl-2-oxo-5-phenyl-2,3-dihydro-1H-1,4-benzodiazepin-3-yl)-2,3-bis(3,3,3-trifluoropropyl)succinamide]	8.3	1.68	
NC(=O)[C@@H](CCC(F)(F)F)[C@@H](CCC(F)(F)F)C(=O)N[C@H]1N=C(c2ccccc2)c2cccc(C3CC3)c2NC1=O [Example 24, (2R,3S)—N-((3S)-9-Cyclopropyl-2-oxo-5-phenyl-2,3-dihydro-1H-1,4-benzodiazepin-3-yl)-2,3-bis(3,3,3-trifluoropropyl)succinamide]	2.1	1.03	
NC(=O)[C@@H](CCC(F)(F)F)[C@@H](CCC(F)(F)F)C(=O)N[C@H]1N=C(c2cccc(C3CC3)c2)c2cccc(Cl)c2NC1=O [Example 25, (2R,3S)—N-((3S)-9-Chloro-5-(3-cyclopropylphenyl)-2-oxo-2,3-dihydro-1H-1,4-benzodiazepin-3-yl)-2,3-bis(3,3,3-trifluoropropyl)succinamide]	2.9	> 2	
COc1cccc2c1NC(=O)[C@@H](NC(=O)[C@H](CCC(F)(F)F)[C@H](CCC(F)(F)F)C(N)=O)N=C2c1cccc(Cl)c1 [Example 26, (2R,3S)—N-((3S)-5-(3-Chlorophenyl)-9-methoxy-2-oxo-2,3-dihydro-1H-1,4-benzodiazepin-3-yl)-2,3-bis(3,3,3-trifluoropropyl)succinamide]	3.4	1.37	
COc1cccc2c1NC(=O)[C@@H](NC(=O)[C@H](CCC(F)(F)F)[C@H](CCC(F)(F)F)C(N)=O)N=C2c1ccc(Cl)cc1 [Example 27, (2R,3S)—N-((3S)-5-(4-Chlorophenyl)-9-methoxy-2-oxo-2,3-dihydro-1H-1,4-benzodiazepin-3-yl)-2,3-bis(3,3,3-trifluoropropyl)succinamide]			half-life at 0.5 µM [4]: 1.92 h
Cc1cccc(C2=N[C@H](NC(=O)[C@H](CCC(F)(F)F)[C@H](CCC(F)(F)F)C(N)=O)C(=O)Nc3c(Cl)cccc32)c1 [Example 28, (2R,3S)—N-((3S)-9-Chloro-5-(3-methylphenyl)-2-oxo-2,3-dihydro-1H-1,4-benzodiazepin-3-yl)-2,3-bis(3,3,3-trifluoropropyl)succinamide]	7.2	1.63	
Cc1ccccc1C1=N[C@H](NC(=O)[C@H](CCC(F)(F)F)[C@H](CCC(F)(F)F)C(N)=O)C(=O)Nc2ccccc21 [Example 31, (2R,3S)—N-((3S)-5-(2-Methylphenyl)-2-oxo-2,3-dihydro-1H-1,4-benzodiazepin-3-yl)-2,3-bis(3,3,3-trifluoropropyl)succinamide]	4.6	1.67	
COc1cccc2c1NC(=O)[C@@H](NC(=O)[C@H](CCC(F)(F)F)[C@H](CCC(F)(F)F)C(N)=O)N=C2c1ccc(C(F)(F)F)cn1 [Example 33, (2R,3S)—N-((3S)-9-Methoxy-2-oxo-5-(5-(trifluoromethyl)-2-pyridinyl)-2,3-dihydro-1H-1,4-benzodiazepin-3-yl)-2,3-bis(3,3,3-trifluoropropyl)succinamide]	7.4	1.37	
Cc1ccc(C2=N[C@H](NC(=O)[C@H](CCC(F)(F)F)[C@H](CCC(F)(F)F)C(N)=O)C(=O)Nc3ccccc32)cc1 [Example 36, (2R,3S)—N-((3S)-5-(4-Methylphenyl)-2-oxo-2,3-dihydro-1H-1,4-benzodiazepin-3-yl)-2,3-bis(3,3,3-trifluoropropyl)succinamide]	3	> 2	
NC(=O)[C@@H](CCC(F)(F)F)[C@@H](CCC(F)(F)F)C(=O)N[C@H]1N=C(c2cccc(F)c2)c2cccc(CO)c2NC1=O [Example 37, (2R,3S)—N-((3S)-5-(3-Fluorophenyl)-9-(hydroxymethyl)-2-oxo-2,3-dihydro-1H-1,4-benzodiazepin-3-yl)-2,3-bis(3,3,3-trifluoropropyl)succinamide]	9.3	1.02	
Cc1cccc2c1N(COC(=O)Cc1ccc(OP(=O)(O)O)cc1)C(=O)[C@@H](NC(=O)[C@H](CCC(F)(F)F)[C@H](CCC(F)(F)F)C(N)=O)N=C2c1cccc(F)c1 [Example 43, ((3S)-3-(((2R,3S)-3-Carbamoyl-6,6,6-trifluoro-2-(3,3,3-trifluoropropyl)hexanoyl)amino)-5-(3-fluorophenyl)-9-methyl-2-oxo-2,3-dihydro-1H-1,4-benzodiazepin-1-yl)methyl(4-(phosphonooxy)phenyl)acetate]			% Relative Bioavailability to Example 1 [5]: 35%; AUC0-24 h of Example 1 after Administration of Prodrug [5]: 0.193 µM·h
